Among the data in ChEMBL document CHEMBL1201862, “PubChem BioAssay data set” (2004) are EC50, CC50 and IC50 values, retold here.

A short description of test [1]: Luminescence Cell-Based Dose Response HTS to Identify Activators of 5'UTR Stem-Loop Driven Prion Protein mRNA Translation in H4-C Neuroglioblastoma Cells. [Related pubchem assays: 1829 (Project Summary), 1814 (Primary HTS)]. The class given is functional.
Test [2] in a line: Luminescence Cell-Based Dose Response HTS to Identify Activators of Luciferase Translation or Activity in H4 […] Cells. [Related pubchem assays: 1829 (Project Summary), 1814 (Primary HTS)]. Type of test: functional.
Test [3] can be described thus: Luminescence Cell-Based Dose Response HTS to Identify Activators of Luciferase Translation or Activity in H4-C Neuroglioblastoma Cells. [Related pubchem assays: 1829 (Project Summary), 1814 (Primary HTS)]. Type of test: functional.
The subject of test [4] is Vero. Description: cells. The settings on record: Chlorocebus sabaeus. Type of test: functional.
Test [5] can be described thus: Luminescence Cell-Based Dose Confirmation HTS to Identify Activators of 5'UTR Stem-Loop Driven Alpha-Synuclein mRNA Translation in H4 Neuroglioblastoma Cells. [Related pubchem assays: 1829 (Project Summary), 1814 (Primary HTS)]. The class given is functional.
Test [6] can be described thus: Luminescence Cell-Based Dose Retest to Confirm Activators of 5'UTR Stem-Loop Driven Alpha-Synuclein mRNA Translation in H4 Neuroglioblastoma Cells. [Related pubchem assays (depositor defined):AID1813, AID1829]. The class given is functional.
In test [7] the target is T1, RNA-binding protein pos-1 (Caenorhabditis elegans, UniProt G5EF15).
T1 sequence (G5EF15 whole entry): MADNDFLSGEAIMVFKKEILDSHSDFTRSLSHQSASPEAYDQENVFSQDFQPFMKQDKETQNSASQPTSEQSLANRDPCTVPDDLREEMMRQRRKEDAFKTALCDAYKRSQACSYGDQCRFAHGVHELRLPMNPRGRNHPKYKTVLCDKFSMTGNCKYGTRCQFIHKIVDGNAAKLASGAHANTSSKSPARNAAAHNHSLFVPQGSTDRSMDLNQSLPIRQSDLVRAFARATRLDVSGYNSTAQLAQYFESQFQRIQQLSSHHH
Description: inhibitors of POS-1/mex-3 RNA binding, dose response, biochemical, fluorescence polarization (AID 1964).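 Further: purified POS-1 fused to maltose binding protein made in E. coli; potency of compounds blocking POS-1 binding to fluorescent RNA.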 Background: In fluorescence polarisation assays a small probe gives low polarisation when free and higher when bound to something large.

Test [8] deals with H4. Description: Luminescence Cell-Based Dose Response HTS to Identify Activators of 5'UTR Stem-Loop Driven Prion Protein mRNA Translation in H4 Neuroglioblastoma Cells. [Related pubchem assays: 1829 (Project Summary), 1814 (Primary HTS)]. The class given is functional. The conditions noted are these: Homo sapiens.
Test [9] concerns the target T2, Zinc finger protein mex-5 (Caenorhabditis elegans, UniProt Q9XUB2).
T2 sequence (Q9XUB2 whole entry): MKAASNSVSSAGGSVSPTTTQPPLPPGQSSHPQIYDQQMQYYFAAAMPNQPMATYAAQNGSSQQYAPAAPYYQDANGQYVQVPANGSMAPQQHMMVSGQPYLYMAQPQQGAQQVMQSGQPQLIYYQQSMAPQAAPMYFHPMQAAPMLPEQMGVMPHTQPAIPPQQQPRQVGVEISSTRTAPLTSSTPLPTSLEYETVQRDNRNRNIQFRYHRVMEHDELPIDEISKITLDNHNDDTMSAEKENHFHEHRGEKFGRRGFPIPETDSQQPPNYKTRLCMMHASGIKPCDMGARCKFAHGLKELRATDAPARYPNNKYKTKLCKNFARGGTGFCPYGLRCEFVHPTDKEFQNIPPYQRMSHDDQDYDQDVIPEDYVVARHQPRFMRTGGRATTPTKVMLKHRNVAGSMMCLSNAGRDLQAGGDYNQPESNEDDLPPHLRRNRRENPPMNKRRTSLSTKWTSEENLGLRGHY
Description: MEX-5/TCR-2 RNA interaction inhibitors, dose response, biochemical, C. elegans, fluorescence polarization (AID 1960).

In test [10] the test system is Vero. Description: West Nile virus CPE inhibition, SAR follow-up, cell-based, synthesized analogs (AID 2238). The class given is functional. The conditions noted are these: Chlorocebus sabaeus.
Test [11] in a line: A Cell Based Assay for the Identification of Probe candidate Compounds with Anti- Venezuelan Equine Encephalitis virus. [Related pubchem assays: 2409, 2419, 1621, 2238, 2405, 2024, 2065, 2402, 2414, 1635, 1650, 2244 ]. Type of test: functional.
The test system of test [12] is Vero. Description: cytotoxicity of synthesized analogs in Vero 76, SAR follow-up, cytotoxicity control for West Nile virus antiviral project, Vero 76 cells (AID 2414). The class given is functional. The conditions noted are these: Chlorocebus sabaeus.
The test system of test [13] is Vero. Description: cytotoxicity of synthesized analogs in Vero cells, SAR follow-up, cytotoxicity control for West Nile virus antiviral project, cell-based, set II (AID 2402). The class given is functional. The settings on record: Chlorocebus sabaeus.
Test [14] deals with Vero. Description: Vero E6 cell cytotoxicity, SAR follow-up, cytotoxicity control for West Nile virus antiviral project, synthesized analogs (AID 2244). Type of test: functional. The settings on record: Chlorocebus sabaeus.
The subject of test [15] is Vero. Description: West Nile virus antiviral activity, cell-based, CPE readout (AID 1621). The class given is functional. The conditions noted are these: Chlorocebus sabaeus.
Test [16] deals with G-protein coupled receptor 55 (Homo sapiens, UniProt Q9Y2T6). Description: GPR55 agonists via beta-arrestin recruitment, primary screen, imaging, U2OS cells, beta-arrestin-GFP redistribution (AID 1961). Type of test: functional. (Activated receptors often draw arrestin, which recruitment assays turn into a signal.)
Test [17] deals with Neurotensin receptor type 1 (Homo sapiens, UniProt P30989). The class given is functional.
The target in test [18] is T3, Endoribonuclease toxin MazF (Escherichia coli K-12, UniProt P0AE70).
T3 sequence (P0AE70 whole entry): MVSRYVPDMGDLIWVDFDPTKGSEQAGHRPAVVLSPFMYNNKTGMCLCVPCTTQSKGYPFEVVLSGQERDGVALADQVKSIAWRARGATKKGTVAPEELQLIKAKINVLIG
Description: fluorescent RNA oligo signal without MazF, dose response, counter-screen for MazEF activator project, biochemical, fluorescence, single-stranded RNase substrate (AID 588502). Type of test: functional.

A short description of test [19]: growth suppression of beta-catenin-knockout colon cells, dose response, cell-based, HCT116, human colon tumor (AID 1045).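 Further: HCT116 colon tumor cells with beta catenin knocked out; cells exposed to compound for 60 hours.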 Type of test: functional.
Test [20] concerns the target Arf-GAP with SH3 domain, ANK repeat and PH domain-containing protein 1 (Homo sapiens, UniProt Q9ULH1). The class given is functional.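 Further: biochemical fluorescence polarization dose–response screen measuring inhibition of ASAP1; ASAP1 GAP domain stimulating GTP hydrolysis by truncated human ARF1.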
Test [21] in a line: growth suppression of PTEN-null colon cells, dose response, cell-based, HCT116 PTEN knockout (AID 1047).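 Further: HCT116 colon tumor cells with PTEN knocked out; cells exposed to compound for 60 hours before readout; potency for loss of cell viability measured by luminescence.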 The class given is functional.
In test [22] the target is T3, Endoribonuclease toxin MazF. Description: MazF toxin RNase activators, dose response, biochemical, fluorescence, single-stranded RNA substrate, uHTS hits (AID 588481). Type of test: functional.
The target in test [23] is T4, Ubiquitin-conjugating enzyme E2 N (Homo sapiens, UniProt P61088).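 Further: Dose-response confirmation in a TR-FRET assay detecting UBC13-driven polyubiquitin chain formation, inhibition measured.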
T4 sequence (P61088 whole entry): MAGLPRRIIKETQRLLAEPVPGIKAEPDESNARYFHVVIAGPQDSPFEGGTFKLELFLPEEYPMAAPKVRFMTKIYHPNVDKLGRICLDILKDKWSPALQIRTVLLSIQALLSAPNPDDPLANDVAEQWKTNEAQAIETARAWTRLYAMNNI
Type of test: functional.

The target of test [24] is Intestinal-type alkaline phosphatase (Homo sapiens, UniProt P09923). Description: Dose Response confirmation of uHTS hits from a small molecule inhibitors of human intestinal alkaline phosphatase via a luminescent assay. [Related pubchem assays (depositor defined):AID2544, AID2574]. Type of test: functional.
Test [25] deals with Hexokinase (Trypanosoma brucei, UniProt Q38C41). Description: Confirmation assay for inhibitors of Trypanosoma brucei hexokinase 1-Analogue-first series. [Related pubchem assays (depositor defined):AID1430, AID1632, AID2516, AID2560, AID2579, AID2600, AID449725, AID492951]. Type of test: functional.
In test [26] the target is Mu-type opioid receptor (Homo sapiens, UniProt P35372). Description: SAR Analysis of Antagonists of the MOR Receptor using an Image-Based Assay - Set 3. [Related pubchem assays (depositor defined):AID1777, AID1785, AID1786, AID1966, AID2133, AID2136, AID2284, AID2285, AID2420]. Type of test: functional.
Test [27] concerns the target T5, Kappa-type opioid receptor (Homo sapiens, UniProt P41145). Description: SAR analysis of small molecule antagonists of the kappa opioid receptor via a luminescent beta-arrestin assay - Set 3. [Related pubchem assays (depositor defined):AID1777, AID1778, AID1785, AID1786, AID1966, AID2133, AID2136, AID2285, AID2495]. Type of test: functional.
The target of test [28] is T5, Kappa-type opioid receptor. Description: SAR analysis of Antagonists of the Kappa Opioid Receptor (KOR) using an Image-Based Assay - Set 3. [Related pubchem assays (depositor defined):AID1777, AID1785]. Type of test: functional.
The target of test [29] is Delta-type opioid receptor (Homo sapiens, UniProt P41143). Description: SAR Analysis of Antagonists of the DOR Receptor using an Image-Based Assay - Set 3. [Related pubchem assays (depositor defined):AID1777, AID1785]. Type of test: functional.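 Further: U2OS cells expressing DOR1 and beta-arrestin GFP stimulated with 100 nM SNC80; imaging of GFP-tagged beta-arrestin moving into spots after receptor activation.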

The source made the active and inactive calls. Where only a bound is given, the exact number is not on record here.

T5 sequence (P41145 whole entry): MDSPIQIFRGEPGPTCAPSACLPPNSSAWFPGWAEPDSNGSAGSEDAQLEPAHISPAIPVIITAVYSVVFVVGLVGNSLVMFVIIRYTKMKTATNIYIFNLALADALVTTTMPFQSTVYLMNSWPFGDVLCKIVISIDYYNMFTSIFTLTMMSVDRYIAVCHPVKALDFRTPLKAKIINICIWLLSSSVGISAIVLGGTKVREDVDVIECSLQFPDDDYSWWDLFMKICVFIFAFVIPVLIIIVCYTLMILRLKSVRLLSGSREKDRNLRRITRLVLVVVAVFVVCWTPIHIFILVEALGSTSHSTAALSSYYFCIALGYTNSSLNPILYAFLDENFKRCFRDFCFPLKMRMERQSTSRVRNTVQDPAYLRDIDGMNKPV
Arf-GAP with SH3 domain, ANK repeat and PH domain-containing protein 1, sequence (Q9ULH1 whole entry, the tested form may be a part): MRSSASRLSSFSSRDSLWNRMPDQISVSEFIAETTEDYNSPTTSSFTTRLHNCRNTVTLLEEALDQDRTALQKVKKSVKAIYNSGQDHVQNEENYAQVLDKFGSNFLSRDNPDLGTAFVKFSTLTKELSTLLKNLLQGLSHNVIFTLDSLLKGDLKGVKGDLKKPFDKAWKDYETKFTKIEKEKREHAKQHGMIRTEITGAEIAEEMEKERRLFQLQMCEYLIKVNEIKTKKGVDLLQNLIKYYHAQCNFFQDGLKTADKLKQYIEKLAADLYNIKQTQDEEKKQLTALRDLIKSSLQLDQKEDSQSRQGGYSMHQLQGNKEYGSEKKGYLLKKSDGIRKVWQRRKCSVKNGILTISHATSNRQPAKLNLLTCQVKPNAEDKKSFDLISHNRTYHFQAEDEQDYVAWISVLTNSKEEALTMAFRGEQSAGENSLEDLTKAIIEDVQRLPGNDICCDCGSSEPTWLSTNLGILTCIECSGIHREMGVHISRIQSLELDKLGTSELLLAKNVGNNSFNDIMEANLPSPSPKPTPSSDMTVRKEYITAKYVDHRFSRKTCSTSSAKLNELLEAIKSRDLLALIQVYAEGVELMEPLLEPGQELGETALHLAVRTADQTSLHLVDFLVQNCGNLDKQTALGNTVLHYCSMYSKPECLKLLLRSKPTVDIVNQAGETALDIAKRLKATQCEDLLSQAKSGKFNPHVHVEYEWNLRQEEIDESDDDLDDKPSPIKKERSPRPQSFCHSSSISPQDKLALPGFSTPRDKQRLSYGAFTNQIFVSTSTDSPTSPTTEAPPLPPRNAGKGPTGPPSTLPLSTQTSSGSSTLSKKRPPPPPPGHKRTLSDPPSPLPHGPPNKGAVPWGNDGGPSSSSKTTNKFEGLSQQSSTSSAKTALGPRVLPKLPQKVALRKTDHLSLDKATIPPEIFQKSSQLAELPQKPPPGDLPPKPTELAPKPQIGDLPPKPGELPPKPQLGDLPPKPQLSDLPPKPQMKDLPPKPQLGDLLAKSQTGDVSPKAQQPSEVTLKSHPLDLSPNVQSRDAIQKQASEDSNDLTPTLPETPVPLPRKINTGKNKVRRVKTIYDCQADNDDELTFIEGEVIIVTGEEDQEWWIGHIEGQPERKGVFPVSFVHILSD
Mu-type opioid receptor, sequence (P35372 whole entry): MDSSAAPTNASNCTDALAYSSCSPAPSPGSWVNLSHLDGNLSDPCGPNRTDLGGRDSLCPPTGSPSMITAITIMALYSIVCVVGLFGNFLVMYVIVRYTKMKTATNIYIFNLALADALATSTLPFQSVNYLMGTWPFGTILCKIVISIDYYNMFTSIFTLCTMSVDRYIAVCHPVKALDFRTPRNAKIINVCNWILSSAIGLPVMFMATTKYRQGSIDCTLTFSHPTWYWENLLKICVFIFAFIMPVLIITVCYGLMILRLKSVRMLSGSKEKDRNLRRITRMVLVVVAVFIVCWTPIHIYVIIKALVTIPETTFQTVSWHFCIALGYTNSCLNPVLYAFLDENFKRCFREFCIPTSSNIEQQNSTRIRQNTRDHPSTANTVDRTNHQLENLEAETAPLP
G-protein coupled receptor 55, sequence (Q9Y2T6 whole entry): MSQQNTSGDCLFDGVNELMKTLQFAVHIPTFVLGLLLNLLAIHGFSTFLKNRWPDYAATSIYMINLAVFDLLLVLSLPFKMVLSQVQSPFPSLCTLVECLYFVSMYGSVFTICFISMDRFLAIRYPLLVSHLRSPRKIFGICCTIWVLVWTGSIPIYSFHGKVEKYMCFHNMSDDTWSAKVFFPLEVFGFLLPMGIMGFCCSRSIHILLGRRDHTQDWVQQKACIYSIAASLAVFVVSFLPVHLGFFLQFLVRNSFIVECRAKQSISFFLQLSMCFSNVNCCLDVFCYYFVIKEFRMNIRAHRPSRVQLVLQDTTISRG
Delta-type opioid receptor, sequence (P41143 whole entry): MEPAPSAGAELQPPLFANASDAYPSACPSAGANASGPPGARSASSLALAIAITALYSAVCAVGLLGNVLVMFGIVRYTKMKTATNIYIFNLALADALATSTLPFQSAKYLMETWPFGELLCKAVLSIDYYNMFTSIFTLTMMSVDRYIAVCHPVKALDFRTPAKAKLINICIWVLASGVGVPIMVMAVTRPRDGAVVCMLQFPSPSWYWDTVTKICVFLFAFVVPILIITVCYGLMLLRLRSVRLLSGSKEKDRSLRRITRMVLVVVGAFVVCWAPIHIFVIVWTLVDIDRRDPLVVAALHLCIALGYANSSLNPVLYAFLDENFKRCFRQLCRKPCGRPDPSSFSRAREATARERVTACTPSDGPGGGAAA
Intestinal-type alkaline phosphatase, sequence (P09923 whole entry): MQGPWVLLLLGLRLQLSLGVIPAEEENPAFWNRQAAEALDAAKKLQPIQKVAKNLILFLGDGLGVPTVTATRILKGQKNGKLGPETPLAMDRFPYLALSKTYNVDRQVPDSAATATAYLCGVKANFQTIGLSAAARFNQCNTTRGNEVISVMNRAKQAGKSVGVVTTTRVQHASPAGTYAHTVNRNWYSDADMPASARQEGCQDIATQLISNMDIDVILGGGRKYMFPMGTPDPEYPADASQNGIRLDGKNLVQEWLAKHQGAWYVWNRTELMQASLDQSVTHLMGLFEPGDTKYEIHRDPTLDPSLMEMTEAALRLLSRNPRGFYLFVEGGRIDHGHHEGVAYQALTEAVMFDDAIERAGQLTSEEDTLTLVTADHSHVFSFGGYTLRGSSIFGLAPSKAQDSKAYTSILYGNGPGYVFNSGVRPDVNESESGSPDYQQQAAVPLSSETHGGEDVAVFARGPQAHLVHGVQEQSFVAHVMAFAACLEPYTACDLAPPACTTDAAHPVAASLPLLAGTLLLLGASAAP
Neurotensin receptor type 1, sequence (P30989 whole entry): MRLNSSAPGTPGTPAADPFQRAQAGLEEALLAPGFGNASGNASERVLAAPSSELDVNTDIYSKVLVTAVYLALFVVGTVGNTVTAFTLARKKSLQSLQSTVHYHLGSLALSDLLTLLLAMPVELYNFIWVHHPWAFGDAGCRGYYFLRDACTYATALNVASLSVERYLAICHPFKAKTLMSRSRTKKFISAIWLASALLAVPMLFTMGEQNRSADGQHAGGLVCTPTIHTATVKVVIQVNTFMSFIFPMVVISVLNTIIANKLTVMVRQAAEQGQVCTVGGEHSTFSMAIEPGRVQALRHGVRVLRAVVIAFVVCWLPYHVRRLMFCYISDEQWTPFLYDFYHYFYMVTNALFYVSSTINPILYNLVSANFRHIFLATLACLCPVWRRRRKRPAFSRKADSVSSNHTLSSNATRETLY
Hexokinase, sequence (Q38C41 whole entry): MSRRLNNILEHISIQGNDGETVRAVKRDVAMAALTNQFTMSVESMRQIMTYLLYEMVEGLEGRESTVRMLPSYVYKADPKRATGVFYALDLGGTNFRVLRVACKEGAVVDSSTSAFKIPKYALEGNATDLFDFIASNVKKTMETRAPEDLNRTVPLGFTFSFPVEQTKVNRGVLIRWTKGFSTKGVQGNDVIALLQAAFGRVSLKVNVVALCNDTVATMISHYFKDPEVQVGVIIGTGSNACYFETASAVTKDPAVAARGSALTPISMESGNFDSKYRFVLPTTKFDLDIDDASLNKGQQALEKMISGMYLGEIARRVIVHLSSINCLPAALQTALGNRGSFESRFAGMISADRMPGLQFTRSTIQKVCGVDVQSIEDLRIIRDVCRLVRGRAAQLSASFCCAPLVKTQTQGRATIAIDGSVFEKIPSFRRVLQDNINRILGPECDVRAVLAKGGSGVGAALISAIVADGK

Broadly, the EC50 is the concentration at which the effect is half-maximal. The term CC50 denotes the concentration that lowers cell viability or growth by half. `COc1cc(/C=C2/C(=O)ON=C2C)ccc1OCc1ccccc1F`: the EC50 in test [1] is 10.3 µM (active); in test [2] it was 39.6 µM (active); in [3], 2.06 µM (active); in test [5], 0.127 µM (active); in test [6], 0.901 µM (active); in test [7], 60.2 µM (active). For the same compound, the EC50 is > 120 µM (not active) in [8] and > 300 µM (inconclusive) in test [9]. The cytotoxic concentration (CC50) in test [4] was 22.3 µM (active).
By IC50 is commonly meant the concentration that gives 50% inhibition. For `CC1CCCN(CCCNC(=O)c2cc3c(s2)-c2ccccc2OC3)C1` (stereo not given), the IC50 in [10] is > 40 µM (active); in test [11], 9.94 µM (active); in [15], 18.9 µM (active). For the same compound, the CC50 in test [12] is 19.6 µM (active); in test [4], > 25 µM (active); in test [13] it was 9.23 µM (active); in [14], 6.78 µM (active).
Turning to `COc1cc2c3nnc(-c4ccc(F)cc4)c-3cn(Cc3ccccc3)c2cc1OC`, the EC50 in test [16] is 0.921 µM (active); in test [17], 2.91 µM (active); in test [18] it was > 99 µM (inactive); in test [19] it was 5.84 µM (active); in [21] it was 5.91 µM (active); in test [22], > 99 µM (inactive). The IC50 was 19.2 µM (inactive) in test [20] and > 20 µM (inactive) in [23].
With `Cc1cccc(SCc2noc(C(=O)NCC3CCCO3)c2C(=O)O)c1` (stereo not given), in test [24], the IC50 was > 100 µM (inactive).
Turning to `O=C(Nc1ccccc1)c1cc(F)ccc1S`, the IC50 in test [25] was > 25 µM (inactive).
`CCc1ccc(S(=O)(=O)NCc2ccc(C(=O)NCCN(Cc3ccc(OC)cc3)C(C)C)cc2)cc1`: the IC50 is > 32 µM (inactive) in test [26], 0.873 µM (active) in test [27], 0.264 µM (active) in test [28] and > 32 µM (inactive) in [29].
